Assay results reported in ChEMBL document CHEMBL5143721, “Novel Hydroxychalcone-Based Dual Inhibitors of Aldose Reductase and α-Glucosidase as Potential Therapeutic Agents against Diabetes Mellitus and Its Complications” (J Med Chem, 2022).

Tests used:
[1] = Inhibition of Wistar rat lens ALR2 using D,L-glyceraldehyde as substrate preincubated for 10 mins in presence of NADPH followed by substrate addition and measured after 4 mins; format: tissue-based
[2] = Inhibition of Wistar rat kidney ALR1 using sodium D-glucuronate as substrate preincubated for 10 mins in presence of NADPH followed by substrate addition and measured after 4 mins; format: tissue-based
[3] = Inhibition of Saccharomyces cerevisiae Alpha-glucosidase using p-nitrophenyl glucopyranoside as substrate preincubated for 5 mins followed by substrate addition and measured for 30 mins
Rattus norvegicus [4] = organism: Rattus norvegicus; assay: Selectivity index, ratio of IC50 for Wistar rat kidney ALR1 to IC50 for Wistar rat lens ALR2
Brain [5] = assay: Antioxidant activity in rat brain homogenate assessed as inhibition of lipid peroxidation by measuring MDA concentration at 1 uM by TBARS assay relative to control; format: functional, tissue-based; parameters: scale not given: the % may be the effect or the level left
[6] = Antioxidant activity assessed as DPPH radical scavenging activity at 10 uM incubated for 30 mins by DPPH assay relative to control; format: functional
[7] = Antioxidant activity assessed as DPPH radical scavenging activity at 5 uM incubated for 30 mins by DPPH assay relative to control; format: functional
[8] = Antioxidant activity assessed as DPPH radical scavenging activity at 1 uM incubated for 30 mins by DPPH assay relative to control; format: functional
Brain [9] = assay: Antioxidant activity in rat brain homogenate assessed as inhibition of lipid peroxidation by measuring MDA concentration at 5 uM by TBARS assay relative to control; format: functional, tissue-based; parameters: scale not given: the % may be the effect or the level left
Brain [10] = assay: Antioxidant activity in rat brain homogenate assessed as inhibition of lipid peroxidation by measuring MDA concentration at 100 uM by TBARS assay relative to control; format: functional, tissue-based; parameters: scale not given: the % may be the effect or the level left
Brain [11] = assay: Antioxidant activity in rat brain homogenate assessed as inhibition of lipid peroxidation by measuring MDA concentration at 50 uM by TBARS assay relative to control; format: functional, tissue-based; parameters: scale not given: the % may be the effect or the level left
Brain [12] = assay: Antioxidant activity in rat brain homogenate assessed as inhibition of lipid peroxidation by measuring MDA concentration at 10 uM relative to control; format: functional, tissue-based; parameters: scale not given: the % may be the effect or the level left
[13] = Antioxidant activity assessed as DPPH radical scavenging activity at 100 uM incubated for 30 mins by DPPH assay relative to control; format: functional
[14] = Antioxidant activity assessed as DPPH radical scavenging activity at 50 uM incubated for 30 mins by DPPH assay relative to control; format: functional
[15] = Octanol/buffer distribution coefficient, log D of compound at pH 7.4 incubated for 24 hrs by shake flask based HPLC method; format: physicochemical
Rattus norvegicus [16] = organism: Rattus norvegicus; assay: Non competitive inhibition of Wistar rat lens ALR2 using D,L-glyceraldehyde as substrate up to 200 uM by Lineweaver-Burk plot analysis; format: tissue-based
Saccharomyces cerevisiae = assay: Non competitive inhibition of Saccharomyces cerevisiae alpha-glucosidase using p-nitrophenyl glucopyranoside as substrate up to 200 uM by Lineweaver-Burk plot analysis
Rattus norvegicus [17] = assay: Antidiabetic activity against STZ-induced diabetic Sprague-Dawley rat model assessed as reduction in fasting blood glucose level at 100 mg/kg, IG administered once daily for 28 days; format: functional; parameters: scale not given: the % may be the effect or the level left; details: time 28 day
Rattus norvegicus [18] = assay: Antidiabetic activity against STZ-induced diabetic Sprague-Dawley rat model assessed as reduction in fasting blood glucose level at 80 mg/kg, IG administered once daily for 28 days; format: functional; parameters: scale not given: the % may be the effect or the level left; details: time 28 day
[19] = In vivo inhibition of ALR2 in STZ-induced diabetic Sprague-Dawley rat model assessed as reduction in ALR2 activity in lens at 80 mg/kg, IG administered once daily for 28 days relative to control; format: functional; parameters: scale not given: the % may be the effect or the level left; details: time 28 day

SMILES | IC50 [1] [µM] | IC50 [2] [µM] | IC50 [3] [µM] | Ratio IC50 (Rattus norvegicus [4]) | Activity [6] [%] | Activity (Brain [10]) [%] | Activity (Brain [11]) [%] | other results
Cc1c(C)c2c(c(C)c1O)CCC(C)(C(=O)O)O2 (centres undefined) | – | – | – | – | 86.3 | 79.2 | 47.5 | Activity (Brain [5]): 3.39%; Activity [7]: 46.7%; Activity [8]: 8.63%; Activity (Brain [9]): 15.5%; Activity (Brain [12]): 31.9%
COC(=O)Cn1c(=O)oc2cc(/C=C/c3ccc(O)cc3)ccc21 | 72.2 | – | – | – | – | – | – | –
COC(=O)Cn1c(=O)oc2c(C(=O)/C=C/c3cccc(O)c3)cccc21 | > 100 | > 100 | – | – | – | – | – | –
COC(=O)Cn1c(=O)oc2c(C(=O)/C=C/c3ccc(O)c(Cl)c3)cccc21 | 12.2 | > 100 | – | > 8.82 | – | – | – | –
COC(=O)Cn1c(=O)oc2c(C(=O)/C=C/c3ccc(O)cc3OC)cccc21 | 0.826 | > 100 | – | > 121 | – | – | – | –
COC(=O)Cn1c(=O)oc2c(C(=O)/C=C/c3ccc(O)cc3)cccc21 | 0.226 | > 100 | 55.4 | > 415 | 10.6 | 38 | 24.1 | Activity [13]: 46.3%; Activity [14]: 30%; logD at 24 h [15]: 1.46
CC(C)=CCCn1c(=O)oc2c(C(=O)/C=C/c3ccc(O)c(O)c3)cccc21 | 0.13 | 10.3 | 4.13 | 79.3 | 94.4 | 96.4 | 92.5 | Activity (Brain [5]): 34.2%; Activity [13]: 98.5%; Activity [14]: 97%; Activity [7]: 89.8%; Activity [8]: 44.7%; Activity (Brain [9]): 63.2%; Km (Rattus norvegicus [16]): 585 µM; Km (Saccharomyces cerevisiae): 449 µM; logD at 24 h [15]: 1.04; Activity (Brain [12]): 73%
CN(C)C(=N)NC(=N)N [METFORMIN] | – | – | – | – | – | – | – | Activity (Rattus norvegicus [17]): 38.5%
COC(=O)Cn1c(=O)oc2c(C(=O)/C=C/c3ccc(O)c(OC)c3)cccc21 | 13.2 | > 100 | – | > 7.59 | 50.3 | 66.1 | 43 | Activity [13]: 92.4%; Activity [14]: 82.2%; Activity [7]: 25.4%; Activity [8]: 14.8%; Activity (Brain [12]): 23.6%
CC(C)=CCn1c(=O)oc2c(C(=O)/C=C/c3ccc(O)cc3)cccc21 | 0.201 | > 100 | 41.5 | > 498 | 7.1 | 38.7 | 27 | Activity [13]: 39.1%; Activity [14]: 18.3%; logD at 24 h [15]: 1.65
COC(=O)Cn1c(=O)oc2ccc(/C=C/c3ccc(O)cc3)cc21 | > 100 | – | – | – | – | – | – | –
COC(=O)Cn1c(=O)oc2c(/C=C/c3ccc(O)cc3)cccc21 | 11.7 | – | – | – | – | – | – | –
CC(/C=C1\SC(=S)N(CC(=O)O)C1=O)=C\c1ccccc1 | 0.119 | 5.29 | – | 44.5 | – | – | – | logD at 24 h [15]: 0.21; Activity (Rattus norvegicus [18]): 20.9%; Activity [19]: 62.1%
COC(=O)Cn1c(=O)oc2c(C(=O)/C=C/c3ccc(OC)cc3)cccc21 | > 100 | > 100 | – | – | – | – | – | –

Continued, in another order:

IC50 [1] [µM] | IC50 [2] [µM] | IC50 [3] [µM] | Ratio IC50 (Rattus norvegicus [4]) | SMILES | Activity [6] [%] | Activity (Brain [10]) [%] | Activity (Brain [11]) [%] | other results
2.85 | > 100 | 104 | > 35.1 | O=C(/C=C/c1ccc(O)cc1)c1cccc2[nH]c(=O)oc12 | – | – | – | –
> 100 | > 100 | – | – | O=C(/C=C/c1cccc(O)c1)c1cccc2[nH]c(=O)oc12 | – | – | – | –
0.111 | 7.84 | 71.2 | 70.7 | COC(=O)Cn1c(=O)oc2c(C(=O)/C=C/c3cc(F)c(O)c(F)c3)cccc21 | 9.1 | 28 | 20.9 | Activity [13]: 52.9%; Activity [14]: 35%; logD at 24 h [15]: 1.07
> 100 | > 100 | – | – | COc1ccc(/C=C/C(=O)c2cccc3[nH]c(=O)oc23)cc1 | – | – | – | –
> 100 | > 100 | – | – | O=C(/C=C/c1ccc(O)c(Cl)c1)c1cccc2[nH]c(=O)oc12 | – | – | – | –
16.7 | > 100 | – | > 5.98 | COc1cc(O)ccc1/C=C/C(=O)c1cccc2[nH]c(=O)oc12 | – | – | – | –
56.1 | > 100 | – | > 1.78 | COC(=O)Cn1c(=O)oc2c(C(=O)/C=C/c3ccc(O)c(C(F)(F)F)c3)cccc21 | – | – | – | –
> 100 | > 100 | – | – | COc1cc(/C=C/C(=O)c2cccc3[nH]c(=O)oc23)ccc1O | – | – | – | –
0.517 | > 100 | 52.1 | > 193 | CC(C)=CCn1c(=O)oc2c(C(=O)/C=C/c3ccc(O)c(F)c3)cccc21 | 12.7 | 33.3 | 22.4 | Activity [13]: 53.8%; Activity [14]: 32.5%; logD at 24 h [15]: 1.64
3.74 | 3.75 | 105 | 1.19 | O=C(/C=C/c1ccc(O)c(F)c1)c1cccc2[nH]c(=O)oc12 | – | – | – | –
0.097 | 4.75 | 59.9 | 49 | CC(C)=CCn1c(=O)oc2c(C(=O)/C=C/c3cc(F)c(O)c(F)c3)cccc21 | 9.1 | 38.3 | 25.9 | Activity [13]: 52.9%; Activity [14]: 35%; logD at 24 h [15]: 1.13
495 | – | – | – | O=c1[nH]c2cccc(/C=C/c3ccc(O)cc3)c2o1 | – | – | – | –
0.491 | 1.41 | 107 | 2.87 | O=C(/C=C/c1cc(F)c(O)c(F)c1)c1cccc2[nH]c(=O)oc12 | – | – | – | –
> 100 | > 100 | – | – | O=C(/C=C/c1ccc(O)c(C(F)(F)F)c1)c1cccc2[nH]c(=O)oc12 | – | – | – | –
3.54 | 2.12 | 63.7 | 0.595 | O=C(/C=C/c1ccc(O)c(O)c1)c1cccc2[nH]c(=O)oc12 | – | – | – | –
0.518 | > 100 | 57.2 | > 193 | COC(=O)Cn1c(=O)oc2c(C(=O)/C=C/c3ccc(O)c(F)c3)cccc21 | 5.09 | 40.1 | 25.4 | Activity [13]: 40.1%; Activity [14]: 19.2%; logD at 24 h [15]: 1.31
